Results reported in patent US20110245242A1, “Heterocyclically Substituted Anilinopyrimides” (Bayer CropScience AG, priority 2008, published 2011).

Tests used:
[1] = test system: Fusarium proliferatum; test: Production of Fumonisin FB1 by Fusarium proliferatum (microtitre plates; FB1 by HPLC-MS/MS, growth by OD620); assay type: cell-based; conditions: for pI50 Fum: FB1 concentration in liquid medium after 6 days at 20° C., HPLC-MS/MS; for pI50 growth: OD620 at the beginning and after 6 days
[2] = log P by LC-MS, method [b], acid range pH 2.7; assay type: physicochemical; conditions: pH 2.7
Experimental: The log P values were measured in accordance with EEC Directive 79/831 Annex V.A8 by HPLC (High Performance Liquid Chromatography) on reversed-phase columns (C 18) using the methods below:
[b] The LC-MS determination in the acid range was carried out at pH 2.7 using the mobile phases 0.1% aqueous formic acid and acetonitrile (contains 0.1% formic acid)
linear gradient from 10% acetonitrile to 95% acetonitrile.

[3] = physchem; assay type: physicochemical; conditions: pH 7.8
Experimental: The log P values were measured in accordance with EEC Directive 79/831 Annex V.A8 by HPLC (High Performance Liquid Chromatography) on reversed-phase columns (C 18) using the methods below: [c] The LC-MS determination in the neutral range was carried out at pH 7.8 using the mobile phases 0.001 molar aqueous ammonium bicarbonate solution and acetonitrile linear gradient from 10% acetonitrile to 95% acetonitrile.

[4] = log P by HPLC on reversed-phase columns (C 18), method [a], acidic range pH 2.3; assay type: physicochemical; conditions: pH 2.3
Experimental: The log P values were measured in accordance with EEC Directive 79/831 Annex V.A8 by HPLC (High Performance Liquid Chromatography) on reversed-phase columns (C 18) using the methods below: [a] The determination was carried out in the acidic range at pH 2.3 using the mobile phases 0.1% aqueous phosphoric acid and acetronitrile linear gradient from 10% acetonitrile to 95% acetronitrile.

CC1CC1Nc1nc(Nc2cccc(N3CCCC3=O)c2)ncc1Cl (centres unmarked) [Example 200]
pI50 Fum [1]: 4.8 | pI50 growth [1]: 4.7 | log p [2]: 1.72[b]

CC(C)Nc1nc(Nc2cccc(N3C(=O)CC(C)(C)C3=O)c2)ncc1Cl [Example 140]
pI50 Fum [1]: 5.7 | pI50 growth [1]: 5.2 | log p [2]: 1.81[b]

CC1(C)CC(=O)N(c2cccc(Nc3ncc(Cl)c(NC4CC4(C)C)n3)c2)C1=O (centres unmarked) [Example 122]
log p [3]: 3.28[c]; | log p [2]: 2.42[b] | log p [4]: 2.42[a];

O=C1CCCN1c1cccc(Nc2ncc(Cl)c(NCC(F)F)n2)c1 [Example 44]
log p [3]: 2.19[c] | log p [4]: 1.64[a];

O=C1OCCN1c1ccc(Nc2ncc(Cl)c(NC3COC3)n2)cc1 [Example 17]
log p [3]: 0.76[c] | log p [4]: 0.26[a];

CC1CC(C)N(c2cccc(Nc3ncc(Cl)c(N(C)C4CC4)n3)c2)C1=O (centres unmarked) [Example 178]
pI50 Fum [1]: 5.7 | pI50 growth [1]: 4.9 | log p [2]: 2.61[b]

O=C1C[C@@H](O)CN1c1cccc(Nc2ncc(Cl)c(NC3CC3)n2)c1 [Example 108]
log p [3]: 1.68[c] | log p [4]: 0.98[a];

CC1CCN(Cc2cccc(Nc3ncc(Cl)c(NC4CC4)n3)c2)C1=O (centres unmarked) [Example 234]
log p [3]: 2.57[c] | log p [4]: 1.7[a];

CC(C)Nc1nc(Nc2cccc(N3C(=O)OCC3C)c2)ncc1Cl (centres unmarked) [Example 139]
pI50 Fum [1]: 5 | pI50 growth [1]: 5 | log p [2]: 1.64[b]

COCC(C)Nc1nc(Nc2cccc(N3CCCC3=O)c2)ncc1C(F)(F)F (centres unmarked) [Example 6]
log p [3]: 2.79[c] | log p [4]: 2.4[a];

CC1CC(=O)N(c2cccc(Nc3ncc(Cl)c(NC4CC4)n3)c2)C1=O (centres unmarked) [Example 65]
pI50 Fum [1]: 6.2 | pI50 growth [1]: 5.7 | log p [2]: 1.59[b]

O=C1CCCN1c1ccc(Nc2ncc(Cl)c(NC3COC3)n2)cc1 [Example 18]
log p [3]: 0.9[c] | log p [4]: 0.41[a];

C=CCNc1nc(Nc2ccc(N3CCCC3=O)cc2)ncc1Cl [Example 13]
log p [3]: 2.29[c] | log p [4]: 1.38[a];

CC1(C)CC1Nc1nc(Nc2cccc(N3CCCC3=O)c2)ncc1Cl (centres unmarked) [Example 127]
log p [3]: 2.99[c]; | log p [2]: 1.98[b] | log p [4]: 1.98[a];

O=C1CCC(CO)N1c1cccc(Nc2ncc(Cl)c(NC3CC3)n2)c1 (centres unmarked) [Example 136]
log p [3]: 1.6[c] | log p [4]: 0.96[a];

CC(C)N(C)c1nc(Nc2cccc(N3CCCC3=O)c2)ncc1Cl [Example 77]
log p [3]: 3.18[c] | log p [4]: 2.1[a];

CNc1nc(Nc2ccc(N3CCOC3=O)cc2)ncc1Cl [Example 61]
log p [3]: 1.82[c] | log p [4]: 0.73[a];

C=CCNc1nc(Nc2ccc(N3CCOC3=O)cc2)ncc1Cl [Example 15]
log p [3]: 2.25[c] | log p [4]: 1.25[a];

O=C1C(O)CCN1c1cccc(Nc2ncc(Cl)c(NC3CC3)n2)c1 (centres unmarked) [Example 78]
log p [3]: 1.84[c] | log p [4]: 1.14[a];

CN(c1nc(Nc2cccc(N3C(=O)CCC3CO)c2)ncc1Cl)C1CC1 (centres unmarked) [Example 82]
log p [3]: 2.06[c] | log p [4]: 1.54[a];

C=CCNc1nc(Nc2cccc(N3CCCC3=O)c2)ncc1Cl [Example 14]
log p [3]: 2.37[c] | log p [4]: 1.45[a];

CC1CC(=O)N(c2cccc(Nc3ncc(Cl)c(NC4CC4(C)C)n3)c2)C1=O (centres unmarked) [Example 121]
log p [3]: 2.92[c]; | log p [2]: 2.13[b] | log p [4]: 2.13[a];

O=C1CCCN1c1cccc(Nc2ncc(Cl)c(NCC(F)(F)F)n2)c1 [Example 10]
log p [3]: 2.42[c] | log p [4]: 2.08[a];

COc1ccc(Nc2ncc(C(F)(F)F)c(NC3CC3)n2)cc1N1CCCC1=O [Example 324]
log p [3]: 2.51[c]; | log p [2]: 1.98[b]

CCC1CCC(=O)N1c1cccc(Nc2ncc(Cl)c(NC3CC3)n2)c1 (centres unmarked) [Example 294]
log p [3]: 2.74[c]; | log p [2]: 1.87[b]

O=C1CCCN1c1cc(Nc2ncc(Cl)c(NC3CC3)n2)ccc1OC(F)(F)F [Example 20]
log p [3]: 2.91[c] | log p [4]: 2.34[a];

CCNc1nc(Nc2cccc(N3CCCC3=O)c2)ncc1Cl [Example 204]
log p [3]: 2.24[c]; | log p [2]: 1.29[b]
